Key:
Experiment in all cases: cells
Assay type in all cases: functional, cell-based
Settings in all cases: Homo sapiens
CCRF-CEM = tested on: CCRF-CEM;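 also: inhibition of CCRF-CEM cell growth, measured by a cell viability assay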
Description: SANGER: Inhibition of human CCRF-CEM cell growth in a cell viability assay.

NCI-H1092 = tested on: NCI-H1092;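 also: cell growth inhibition measured with a cell viability assay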
Description: SANGER: Inhibition of human NCI-H1092 cell growth in a cell viability assay.

NCI-H1304 = tested on: NCI-H1304;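 also: growth inhibition of the cancer cell line, measured in a cell viability assay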
Description: SANGER: Inhibition of human NCI-H1304 cell growth in a cell viability assay.

KARPAS-45 = tested on: KARPAS-45;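 also: inhibition of cell line growth, read out through a viability assay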
Description: SANGER: Inhibition of human KARPAS-45 cell growth in a cell viability assay.

COLO-824 = tested on: COLO-824
Description: SANGER: Inhibition of human COLO-824 cell growth in a cell viability assay.

KALS-1 = tested on: KALS-1;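 also: growth inhibition of KALS-1 cells, determined with a cell viability assay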
Description: SANGER: Inhibition of human KALS-1 cell growth in a cell viability assay.

NCI-H510A = tested on: NCI-H510A;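 also: growth inhibition of NCI-H510A cells, read out with a cell viability assay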
Description: SANGER: Inhibition of human NCI-H510A cell growth in a cell viability assay.

COLO-320-HSR = tested on: COLO-320-HSR;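 also: growth inhibition of COLO-320-HSR cells, determined with a cell viability assay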
Description: SANGER: Inhibition of human COLO-320-HSR cell growth in a cell viability assay.

MZ2-MEL = tested on: MZ2-MEL;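 also: growth inhibition of MZ2-MEL cells read out with a cell viability assay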
Description: SANGER: Inhibition of human MZ2-MEL cell growth in a cell viability assay.

ES3 = tested on: ES3;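 also: growth inhibition of ES3 cells, read out with a cell viability assay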
Description: SANGER: Inhibition of human ES3 cell growth in a cell viability assay.

RKO = tested on: RKO;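 also: growth inhibition of human RKO cells, read out with a cell viability assay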
Description: SANGER: Inhibition of human RKO cell growth in a cell viability assay.

L-363 = tested on: L-363
Description: SANGER: Inhibition of human L-363 cell growth in a cell viability assay.

ONS-76 = tested on: ONS-76;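 also: growth inhibition of human ONS-76 cells, read out with a cell viability assay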
Description: SANGER: Inhibition of human ONS-76 cell growth in a cell viability assay.

NCI-H446 = tested on: NCI-H446;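 also: growth inhibition of NCI-H446 cells determined by a cell viability assay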
Description: SANGER: Inhibition of human NCI-H446 cell growth in a cell viability assay.

MFM-223 = tested on: MFM-223
Description: SANGER: Inhibition of human MFM-223 cell growth in a cell viability assay.

DJM-1 = tested on: DJM-1;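 also: growth inhibition of human DJM-1 cells, read out by a cell viability assay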
Description: SANGER: Inhibition of human DJM-1 cell growth in a cell viability assay.

NOS-1 = tested on: NOS-1;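 also: growth inhibition of the human NOS-1 cell line, read out with a cell viability assay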
Description: SANGER: Inhibition of human NOS-1 cell growth in a cell viability assay.

NCI-H747 = tested on: NCI-H747;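 also: growth inhibition of human NCI-H747 cells, read out by a cell viability assay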
Description: SANGER: Inhibition of human NCI-H747 cell growth in a cell viability assay.

L-428 = tested on: L-428
Description: SANGER: Inhibition of human L-428 cell growth in a cell viability assay.

SK-UT-1 = tested on: SK-UT-1;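 also: growth inhibition of SK-UT-1 cells, measured by a cell viability assay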
Description: SANGER: Inhibition of human SK-UT-1 cell growth in a cell viability assay.

U-266 = tested on: U-266
Description: SANGER: Inhibition of human U-266 cell growth in a cell viability assay.

NCI-H82 = tested on: NCI-H82;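 also: growth inhibition of NCI-H82 cells, measured with a cell viability readout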
Description: SANGER: Inhibition of human NCI-H82 cell growth in a cell viability assay.

MLMA = tested on: MLMA;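 also: growth inhibition of MLMA cells (human), determined through a cell viability readout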
Description: SANGER: Inhibition of human MLMA cell growth in a cell viability assay.

A388 = tested on: A388;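 also: growth inhibition of human A388 cells, read out with a cell viability assay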
Description: SANGER: Inhibition of human A388 cell growth in a cell viability assay.

DMS-114 = tested on: DMS-114
OCI-AML2 = tested on: OCI-AML2;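 also: growth inhibition of OCI-AML2 cells, read out with a cell viability assay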
Description: SANGER: Inhibition of human OCI-AML2 cell growth in a cell viability assay.

BB49-HNC = tested on: BB49-HNC;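 also: cell viability assay read-out, reported as inhibition of BB49-HNC cell growth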
Description: SANGER: Inhibition of human BB49-HNC cell growth in a cell viability assay.

TE-9 = tested on: TE-9;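 also: cell growth inhibition, measured with a cell viability readout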
Description: SANGER: Inhibition of human TE-9 cell growth in a cell viability assay.

TE-5 = tested on: TE-5;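 also: inhibition of cell growth, read out by a cell viability assay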
Description: SANGER: Inhibition of human TE-5 cell growth in a cell viability assay.

TE-6 = tested on: TE-6;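 also: growth inhibition of TE-6 cells, read out with a cell viability assay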
Description: SANGER: Inhibition of human TE-6 cell growth in a cell viability assay.

EW-13 = tested on: EW-13;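 also: growth inhibition of EW-13 cells, read out with a cell viability assay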
Description: SANGER: Inhibition of human EW-13 cell growth in a cell viability assay.

KP-N-YS = tested on: KP-N-YS;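 also: cell viability assay measuring inhibition of cell line growth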
Description: SANGER: Inhibition of human KP-N-YS cell growth in a cell viability assay.

MOLT-4 = tested on: MOLT-4;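 also: growth inhibition of MOLT-4 cells, determined with a cell viability readout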
Description: SANGER: Inhibition of human MOLT-4 cell growth in a cell viability assay.

SW982 = tested on: SW982;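 also: growth inhibition of SW982 cells, read out with a cell viability assay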
Description: SANGER: Inhibition of human SW982 cell growth in a cell viability assay.

HCC1187 = tested on: HCC1187;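 also: growth inhibition of HCC1187 cells, read out with a cell viability assay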
Description: SANGER: Inhibition of human HCC1187 cell growth in a cell viability assay.

TGBC1TKB = tested on: TGBC1TKB;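 also: growth inhibition of TGBC1TKB cells, read out by a cell viability assay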
Description: SANGER: Inhibition of human TGBC1TKB cell growth in a cell viability assay.

SK-NEP-1 = tested on: SK-NEP-1;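 also: growth inhibition of human SK-NEP-1 cells, read out by a cell viability assay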
Description: SANGER: Inhibition of human SK-NEP-1 cell growth in a cell viability assay.

LAMA-84 = tested on: LAMA-84;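 also: growth inhibition of LAMA-84 cells, read out with a cell viability assay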
Description: SANGER: Inhibition of human LAMA-84 cell growth in a cell viability assay.

HT = tested on: HT
Description: SANGER: Inhibition of human HT cell growth in a cell viability assay.

HEL = tested on: HEL;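 also: growth inhibition of HEL cells, read out with a cell viability assay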
Description: SANGER: Inhibition of human HEL cell growth in a cell viability assay.

RCC10RGB = tested on: RCC10RGB;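 also: growth inhibition of human RCC10RGB cells, read out by a cell viability assay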
Description: SANGER: Inhibition of human RCC10RGB cell growth in a cell viability assay.

EKVX = tested on: EKVX;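 also: growth inhibition of human EKVX cells, read out with a cell viability assay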
Description: SANGER: Inhibition of human EKVX cell growth in a cell viability assay.

A101D = tested on: A101D;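 also: growth inhibition of the cell line, measured with a viability assay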
Description: SANGER: Inhibition of human A101D cell growth in a cell viability assay.

NB10 = tested on: NB10;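 also: growth inhibition of NB10 cells, read out by a cell viability assay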
Description: SANGER: Inhibition of human NB10 cell growth in a cell viability assay.

CGTH-W-1 = tested on: CGTH-W-1;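 also: growth inhibition of human CGTH-W-1 cells measured by cell viability assay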
Description: SANGER: Inhibition of human CGTH-W-1 cell growth in a cell viability assay.

LB2518-MEL = tested on: LB2518-MEL;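 also: growth inhibition of human LB2518-MEL cells, measured with a cell viability assay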
Description: SANGER: Inhibition of human LB2518-MEL cell growth in a cell viability assay.

JVM-3 = tested on: JVM-3;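 also: growth inhibition of human JVM-3 cells, read out with a cell viability assay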
Description: SANGER: Inhibition of human JVM-3 cell growth in a cell viability assay.

EW-11 = tested on: EW-11;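 also: growth inhibition of human EW-11 cells, measured with a cell viability assay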
Description: SANGER: Inhibition of human EW-11 cell growth in a cell viability assay.

DEL = tested on: DEL;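 also: growth inhibition of the human DEL cell line, read out with a cell viability assay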
Description: SANGER: Inhibition of human DEL cell growth in a cell viability assay.

SK-MEL-1 = tested on: SK-MEL-1;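 also: growth inhibition of human SK-MEL-1 cells, read out by a cell viability assay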
Description: SANGER: Inhibition of human SK-MEL-1 cell growth in a cell viability assay.

TE-10 = tested on: TE-10;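 also: growth inhibition of TE-10 cells, measured by a cell viability assay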
Description: SANGER: Inhibition of human TE-10 cell growth in a cell viability assay.

GT3TKB = tested on: GT3TKB;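 also: growth inhibition of the cell line, read out with a cell viability assay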
Description: SANGER: Inhibition of human GT3TKB cell growth in a cell viability assay.

no-10 = tested on: no-10;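 also: growth inhibition of no-10 cells, read out with a cell viability assay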
Description: SANGER: Inhibition of human no-10 cell growth in a cell viability assay.

ES4 = tested on: ES4;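 also: growth inhibition of human ES4 cells, read out by a cell viability assay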
Description: SANGER: Inhibition of human ES4 cell growth in a cell viability assay.

HD-MY-Z = tested on: HD-MY-Z;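 also: growth inhibition of HD-MY-Z cells, read out with a cell viability assay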
Description: SANGER: Inhibition of human HD-MY-Z cell growth in a cell viability assay.

NCI-H1299 = tested on: NCI-H1299;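 also: growth inhibition of human NCI-H1299 cells, read out by a cell viability assay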
Description: SANGER: Inhibition of human NCI-H1299 cell growth in a cell viability assay.

KINGS-1 = tested on: KINGS-1;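 also: cell viability assay measuring suppression of KINGS-1 cell growth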
Description: SANGER: Inhibition of human KINGS-1 cell growth in a cell viability assay.

COLO-800 = tested on: COLO-800
Description: SANGER: Inhibition of human COLO-800 cell growth in a cell viability assay.

HAL-01 = tested on: HAL-01
Description: SANGER: Inhibition of human HAL-01 cell growth in a cell viability assay.

HH = tested on: HH
Description: SANGER: Inhibition of human HH cell growth in a cell viability assay.

DSH1 = tested on: DSH1
Description: SANGER: Inhibition of human DSH1 cell growth in a cell viability assay.

UACC-257 = tested on: UACC-257
Description: SANGER: Inhibition of human UACC-257 cell growth in a cell viability assay.

SK-N-DZ = tested on: SK-N-DZ
Description: SANGER: Inhibition of human SK-N-DZ cell growth in a cell viability assay.

LNCaP-Clone-FGC = tested on: LNCaP-Clone-FGC
Description: SANGER: Inhibition of human LNCaP-Clone-FGC cell growth in a cell viability assay.

K562 = tested on: K562
Description: SANGER: Inhibition of human K-562 cell growth in a cell viability assay.

OVCAR-4 = tested on: OVCAR-4
Description: SANGER: Inhibition of human OVCAR-4 cell growth in a cell viability assay.

## C/C=C(/C)C(=O)O[C@H]1C(C)=C2[C@H]([C@@H]1OC(=O)CCCCCCC)[C@@](C)(OC(C)=O)C[C@H](OC(=O)CCC)[C@@]1(O)[C@H]2OC(=O)[C@@]1(C)O [THAPSIGARGIN]
CCRF-CEM
  IC50: 30.9 nM
NCI-H1092
  IC50: > 512 nM
NCI-H1304
  IC50: 59.1 nM
KARPAS-45
  IC50: 8.06 nM
COLO-824
  IC50: 64.6 nM
KALS-1
  IC50: 0.516 nM
NCI-H510A
  IC50: 36.1 nM
COLO-320-HSR
  IC50: 48 nM
MZ2-MEL
  IC50: 1.79 nM
ES3
  IC50: 4.1 nM
RKO
  IC50: 1.61 nM
L-363
  IC50: 0.833 nM
ONS-76
  IC50: 9.98 nM
NCI-H446
  IC50: 35.4 nM
MFM-223
  IC50: > 512 nM
DJM-1
  IC50: 54.7 nM
NOS-1
  IC50: < 2 nM
NCI-H747
  IC50: 100 nM
L-428
  IC50: > 512 nM
SK-UT-1
  IC50: 23.3 nM
U-266
  IC50: 2.91 nM
NCI-H82
  IC50: 31.1 nM
MLMA
  IC50: 57.5 nM
A388
  IC50: 1.39 nM
DMS-114
  IC50: > 512 nM
OCI-AML2
  IC50: 8.04 nM
BB49-HNC
  IC50: > 512 nM
TE-9
  IC50: 13.3 nM
TE-5
  IC50: > 512 nM
TE-6
  IC50: 17.8 nM
EW-13
  IC50: 2.31 nM
KP-N-YS
  IC50: 8.06 nM
MOLT-4
  IC50: 39.5 nM
SW982
  IC50: < 2 nM
HCC1187
  IC50: 505 nM
TGBC1TKB
  IC50: 0.509 nM
SK-NEP-1
  IC50: 15.9 nM
LAMA-84
  IC50: 19.4 nM
HT
  IC50: 5.7 nM
HEL
  IC50: 46.3 nM
RCC10RGB
  IC50: > 512 nM
EKVX
  IC50: 250 nM
A101D
  IC50: 4.82 nM
NB10
  IC50: 63.2 nM
CGTH-W-1
  IC50: < 2 nM
LB2518-MEL
  IC50: 17.3 nM
JVM-3
  IC50: 33.6 nM
EW-11
  IC50: 54.8 nM
DEL
  IC50: 10.3 nM
SK-MEL-1
  IC50: > 512 nM
TE-10
  IC50: 1.57 nM
GT3TKB
  IC50: 12.2 nM
no-10
  IC50: > 512 nM
ES4
  IC50: < 2 nM
HD-MY-Z
  IC50: 17.5 nM
NCI-H1299
  IC50: 0.879 nM
KINGS-1
  IC50: 7.59 nM
COLO-800
  IC50: 51.3 nM
HAL-01
  IC50: 301 nM
HH
  IC50: 95.9 nM
DSH1
  IC50: 13.9 nM
UACC-257
  IC50: 115 nM
SK-N-DZ
  IC50: 43.2 nM
LNCaP-Clone-FGC
  IC50: 32.2 nM
K562
  IC50: 305 nM
OVCAR-4
  IC50: 2.93 nM

## C[C@]1(c2nc3c(C(N)=O)cccc3[nH]2)CCCN1 [VELIPARIB]
CCRF-CEM
  IC50: > 5000 nM
NCI-H1092
  IC50: > 5000 nM
NCI-H1304
  IC50: > 5000 nM
KARPAS-45
  IC50: > 5000 nM
COLO-824
  IC50: > 5000 nM
KALS-1
  IC50: > 5000 nM
NCI-H510A
  IC50: > 5000 nM
COLO-320-HSR
  IC50: > 5000 nM
MZ2-MEL
  IC50: > 5000 nM
ES3
  IC50: > 5000 nM
RKO
  IC50: > 5000 nM
L-363
  IC50: > 5000 nM
ONS-76
  IC50: > 5000 nM
NCI-H446
  IC50: > 5000 nM
MFM-223
  IC50: > 5000 nM
DJM-1
  IC50: > 5000 nM
NOS-1
  IC50: > 5000 nM
NCI-H747
  IC50: > 5000 nM
L-428
  IC50: > 5000 nM
SK-UT-1
  IC50: > 5000 nM
U-266
  IC50: > 5000 nM
NCI-H82
  IC50: > 5000 nM
MLMA
  IC50: > 5000 nM
A388
  IC50: > 5000 nM
DMS-114
  IC50: > 5000 nM
OCI-AML2
  IC50: > 5000 nM
BB49-HNC
  IC50: > 5000 nM
TE-9
  IC50: > 5000 nM
TE-5
  IC50: > 5000 nM
TE-6
  IC50: > 5000 nM
EW-13
  IC50: > 5000 nM
KP-N-YS
  IC50: > 5000 nM
MOLT-4
  IC50: > 5000 nM
SW982
  IC50: > 5000 nM
HCC1187
  IC50: > 5000 nM
TGBC1TKB
  IC50: > 5000 nM
SK-NEP-1
  IC50: > 5000 nM
LAMA-84
  IC50: > 5000 nM
HT
  IC50: > 5000 nM
HEL
  IC50: > 5000 nM
RCC10RGB
  IC50: > 5000 nM
EKVX
  IC50: > 5000 nM
A101D
  IC50: > 5000 nM
NB10
  IC50: > 5000 nM
CGTH-W-1
  IC50: > 5000 nM
LB2518-MEL
  IC50: > 5000 nM
JVM-3
  IC50: > 5000 nM
EW-11
  IC50: > 5000 nM
DEL
  IC50: > 5000 nM
SK-MEL-1
  IC50: > 5000 nM
TE-10
  IC50: > 5000 nM
GT3TKB
  IC50: > 5000 nM
no-10
  IC50: > 5000 nM
ES4
  IC50: > 5000 nM
HD-MY-Z
  IC50: > 5000 nM
NCI-H1299
  IC50: > 5000 nM
KINGS-1
  IC50: > 5000 nM
COLO-800
  IC50: > 5000 nM
HAL-01
  IC50: > 5000 nM
HH
  IC50: > 5000 nM
DSH1
  IC50: > 5000 nM
UACC-257
  IC50: > 5000 nM
SK-N-DZ
  IC50: > 5000 nM
LNCaP-Clone-FGC
  IC50: > 5000 nM
K562
  IC50: > 5000 nM
OVCAR-4
  IC50: > 5000 nM

Reference: ChEMBL document CHEMBL1201861, “Genomics of Drug Sensitity in Cancer screening data, Wellcome Trust Sanger Institute”
